The target in data set [1] is T1, full-length beta-Catenin (Uniprot ID P35222) (Homo sapiens, UniProt P35222).
T1 construct: 10 nM full-length beta-Catenin (Uniprot ID P35222)
T1 sequence (P35222 1-781): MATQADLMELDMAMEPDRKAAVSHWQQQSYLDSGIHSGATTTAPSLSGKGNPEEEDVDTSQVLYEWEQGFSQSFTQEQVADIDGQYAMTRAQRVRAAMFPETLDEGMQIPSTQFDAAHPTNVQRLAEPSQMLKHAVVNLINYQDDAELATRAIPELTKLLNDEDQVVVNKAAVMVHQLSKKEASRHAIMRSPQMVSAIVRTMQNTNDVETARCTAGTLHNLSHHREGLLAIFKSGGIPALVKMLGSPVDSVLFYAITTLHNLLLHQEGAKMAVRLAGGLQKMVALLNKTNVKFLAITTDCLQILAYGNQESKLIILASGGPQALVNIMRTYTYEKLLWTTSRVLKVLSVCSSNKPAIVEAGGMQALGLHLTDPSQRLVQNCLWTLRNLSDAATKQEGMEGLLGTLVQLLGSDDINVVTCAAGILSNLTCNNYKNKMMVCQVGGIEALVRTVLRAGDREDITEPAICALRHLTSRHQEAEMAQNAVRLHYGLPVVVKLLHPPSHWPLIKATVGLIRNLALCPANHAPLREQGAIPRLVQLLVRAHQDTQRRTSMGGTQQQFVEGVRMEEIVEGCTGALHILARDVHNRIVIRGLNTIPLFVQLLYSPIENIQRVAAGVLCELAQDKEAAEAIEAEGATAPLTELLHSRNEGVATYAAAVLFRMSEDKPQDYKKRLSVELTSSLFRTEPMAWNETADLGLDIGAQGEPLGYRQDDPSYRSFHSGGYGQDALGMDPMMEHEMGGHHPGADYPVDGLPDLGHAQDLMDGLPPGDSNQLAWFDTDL
Briefly: Fluorescence polarization IC50 (beta-catenin / 5FAM-TCF4 10-53 competition). The class given is binding.

The next data set in a line: CHI Log D procedure. The class given is physicochemical. To be noted: pH 7.4, CHI Log D.
Another data set in a line: Solubility in PBS. Type of data set: physicochemical. Put shortly:
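Solubility is derived from HPLC peak areas: the ratio of the PBS supernatant peak to a 50 μM DMSO peptide peak, times 50 uM.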

In data set [2] the target is T2, beta-catenin/TCF4 engagement (Homo sapiens, UniProt P35222).
T2 construct: expressed in transfected cells; host or cells: HEK293
T2 sequence (P35222 1-781): T1 sequence (P35222 1-781)
The data set is described as follows: Nano-BRET target engagement assay (B-cat-Halo & TCF4-Luc in HEK293 cells). The class given is cell-based.

[3] abbreviates: absolute IC50, read-out: NanoBRET Abs IC50.

SMILES strings stand for the structures. In brackets after ≈: the same amount, converted by molar mass. Like-named read-outs stand apart in the source and are kept apart here.

With `CC(=O)N1CCC[C@]12CC=CCCCC1(CCCC=CCCCOC(=O)N3CC[C@@](C(=O)N[C@@H](Cc4ccsc4)C(=O)N[C@@H](Cc4csc5ccccc45)C(=O)N[C@@H](CCC(N)=O)C(N)=O)(C3)NC(=O)[C@H](CC(N)=O)NC(=O)[C@H](Cc3ccccc3)NC(=O)[C@H](C)NC(=O)[C@H](C)NC(=O)[C@H](CCC(N)=O)NC(=O)[C@H](CC(=O)O)NC1=O)NC(=O)[C@H](CC(C)(C)C)NC(=O)[C@H](CC(=O)O)NC2=O` (stereo partly drawn) [I-838, Ac-PL3-Asp-Npg-B5-Asp-Gln-Ala-Ala-Phe-Asn-PyrS2-3Thi-BztA-Gln-NH2], the IC50 in data set [1] (read-out: beta-Catenin FP IC50) was determined as 12 nM; in data set [2] (setting [3]), 17400 nM. The chromatographic logD in “CHI Log D procedure” worked out at 2.19. In the data set “Solubility in PBS” (Solubility (uM)), this compound came in with a Solubility of 41 µM (≈ 79.2 µg/mL).

For the compound `CC(=O)N1CCC[C@]12CC=CCCCC1(CCCC=CCCCOC(=O)N3CC[C@@](C(=O)N[C@@H](Cc4ccsc4)C(=O)N[C@@H](Cc4csc5ccccc45)C(=O)N[C@@H](Cc4c[nH]cn4)C(N)=O)(C3)NC(=O)[C@H](CC(N)=O)NC(=O)[C@H](Cc3ccccc3)NC(=O)[C@H](C)NC(=O)[C@H](C)NC(=O)[C@H](CCC(N)=O)NC(=O)[C@H](CC(=O)O)NC1=O)NC(=O)[C@H](CC(C)(C)C)NC(=O)[C@H](CC(=O)O)NC2=O` (stereo partly drawn) [I-839, Ac-PL3-Asp-Npg-B5-Asp-Gln-Ala-Ala-Phe-Asn-PyrS2-3Thi-BztA-His-NH2], the figures for the IC50 in data set [1] (read-out: beta-Catenin FP IC50) and in data set [2] (setting [3]) were 7 nM and 41900 nM, respectively. This compound also registered a chromatographic logD in “CHI Log D procedure” of 2.27. Besides, the Solubility in the data set “Solubility in PBS” (Solubility (uM)) is 13 µM (≈ 25.2 µg/mL).

As to `CC(=O)N1CCC[C@]12CC=CCCCC1(CCCC=CCCCOC(=O)N3CC[C@@](C(=O)N[C@@H](Cc4ccsc4)C(=O)N[C@@H](Cc4csc5ccccc45)C(=O)N[C@@H](CCC(N)=O)C(N)=O)(C3)NC(=O)[C@H](CC(N)=O)NC(=O)[C@H](Cc3ccccc3)NC(=O)[C@H](C)NC(=O)[C@H](C)NC(=O)[C@H](CCCNC(N)=O)NC(=O)[C@H](CC(=O)O)NC1=O)NC(=O)[C@H](CC(C)(C)C)NC(=O)[C@H](CC(=O)O)NC2=O` (stereo partly drawn) [I-840, Ac-PL3-Asp-Npg-B5-Asp-Cit-Ala-Ala-Phe-Asn-PyrS2-3Thi-BztA-Gln-NH2], the IC50 in data set [1] (read-out: beta-Catenin FP IC50) worked out at 16 nM; in data set [2] (setting [3]), 22300 nM. Also, the chromatographic logD in “CHI Log D procedure” turned out to be 2.19. Moreover, the Solubility in the data set “Solubility in PBS” (Solubility (uM)) was 32 µM (≈ 62.7 µg/mL).

Regarding `CC(=O)N1CCC[C@]12CC=CCCCC1(CCCC=CCCCOC(=O)N3CC[C@@](C(=O)N[C@@H](Cc4ccsc4)C(=O)N[C@@H](Cc4csc5ccccc45)C(=O)N[C@@H](Cc4c[nH]cn4)C(N)=O)(C3)NC(=O)[C@H](CC(N)=O)NC(=O)[C@H](Cc3ccccc3)NC(=O)[C@H](C)NC(=O)[C@H](C)NC(=O)[C@H](CCCNC(N)=O)NC(=O)[C@H](CC(=O)O)NC1=O)NC(=O)[C@H](CC(C)(C)C)NC(=O)[C@H](CC(=O)O)NC2=O` (stereo partly drawn) [I-841, Ac-PL3-Asp-Npg-B5-Asp-Cit-Ala-Ala-Phe-Asn-PyrS2-3Thi-BztA-His-NH2], the IC50 was 12 nM in data set [1] (read-out: beta-Catenin FP IC50) and 34400 nM in data set [2] (setting [3]). Also, in the data set “CHI Log D procedure”, the chromatographic logD worked out at 2.26. In the data set “Solubility in PBS” (Solubility (uM)), the Solubility was 14 µM (≈ 27.6 µg/mL).

On to `CC(=O)N1CCC[C@]12CC=CCCCC1(CCCC=CCCCOC(=O)N3CC[C@@](C(=O)N[C@@H](Cc4ccsc4)C(=O)N[C@@H](Cc4csc5ccccc45)C(=O)N[C@@H](CCC(N)=O)C(N)=O)(C3)NC(=O)[C@H](CC(N)=O)NC(=O)[C@H](Cc3ccccc3)NC(=O)[C@H](C)NC(=O)[C@H](C)NC(=O)[C@H](Cc3ccc(O)cc3)NC(=O)[C@H](CC(=O)O)NC1=O)NC(=O)[C@H](CC(C)(C)C)NC(=O)[C@H](CC(=O)O)NC2=O` (stereo partly drawn) [I-842, Ac-PL3-Asp-Npg-B5-Asp-Tyr-Ala-Ala-Phe-Asn-PyrS2-3Thi-BztA-Gln-NH2], for which the values for the IC50 in data set [1] (read-out: beta-Catenin FP IC50) and in data set [2] (setting [3]) were 34 nM and 47900 nM, respectively. Also, the chromatographic logD in the data set “CHI Log D procedure” worked out at 2.39. Also, the “Solubility” value in the data set “Solubility in PBS” turned out to be 10 µM (≈ 19.7 µg/mL).

For `CC(=O)N1CCC[C@]12CC=CCCCC1(CCCC=CCCCOC(=O)N3CC[C@@](C(=O)N[C@@H](Cc4ccsc4)C(=O)N[C@@H](Cc4csc5ccccc45)C(=O)N[C@@H](CCC(N)=O)C(N)=O)(C3)NC(=O)[C@H](CC(N)=O)NC(=O)[C@H](Cc3ccccc3)NC(=O)[C@H](C)NC(=O)[C@H](C)NC(=O)[C@H]([C@@H](C)O)NC(=O)[C@H](CC(=O)O)NC1=O)NC(=O)[C@H](CC(C)(C)C)NC(=O)[C@H](CC(=O)O)NC2=O` (stereo partly drawn) [I-844, Ac-PL3-Asp-Npg-B5-Asp-Thr-Ala-Ala-Phe-Asn-PyrS2-3Thi-BztA-Gln-NH2], the IC50 in data set [1] (read-out: beta-Catenin FP IC50) came out at 6 nM; in data set [2] (read-out: NanoBRET IC50), 10700 nM. The chromatographic logD in the data set “CHI Log D procedure” amounted to 2.31. Also, in “Solubility in PBS” (Solubility (uM)), the Solubility worked out at 35 µM (≈ 66.6 µg/mL).

With `CC(=O)N1CCC[C@]12CC=CCCCC1(CCCC=CCCCOC(=O)N3CC[C@@](C(=O)N[C@@H](Cc4ccsc4)C(=O)N[C@@H](Cc4csc5ccccc45)C(=O)N[C@@H](CCC(N)=O)C(N)=O)(C3)NC(=O)[C@H](CC(N)=O)NC(=O)[C@H](Cc3ccccc3)NC(=O)[C@H](C)NC(=O)[C@H](C)NC(=O)[C@H](CC(C)C)NC(=O)[C@H](CC(=O)O)NC1=O)NC(=O)[C@H](CC(C)(C)C)NC(=O)[C@H](CC(=O)O)NC2=O` (stereo partly drawn) [I-846, Ac-PL3-Asp-Npg-B5-Asp-Leu-Ala-Ala-Phe-Asn-PyrS2-3Thi-BztA-Gln-NH2], the IC50 in data set [1] (fluorescence polarization, beta-catenin, read-out: FP EC50) came out at 35 nM; in data set [1] (read-out: beta-Catenin FP IC50), 56 nM. Further, the chromatographic logD in “CHI Log D procedure” turned out to be 2.42. In the data set “Solubility in PBS” (Solubility (uM)), the Solubility came to 18 µM (≈ 34.5 µg/mL). Besides, in data set [2] (HEK293, 10 uM, read-out: NanoBRET % inh @ 10 uM), the inhibition at 10 µM worked out at 4.3%.

As to `CC(=O)N1CCC[C@]12CC=CCCCC1(CCCC=CCCCOC(=O)N3CC[C@@](C(=O)N[C@@H](Cc4ccsc4)C(=O)N[C@@H](Cc4csc5ccccc45)C(=O)N[C@@H](Cc4c[nH]cn4)C(N)=O)(C3)NC(=O)[C@H](CC(N)=O)NC(=O)[C@H](Cc3ccccc3)NC(=O)[C@H](C)NC(=O)[C@H](C)NC(=O)[C@H](CC(C)C)NC(=O)[C@H](CC(=O)O)NC1=O)NC(=O)[C@H](CC(C)(C)C)NC(=O)[C@H](CC(=O)O)NC2=O` (stereo partly drawn) [I-847, Ac-PL3-Asp-Npg-B5-Asp-Leu-Ala-Ala-Phe-Asn-PyrS2-3Thi-BztA-His-NH2], the figures for the IC50 in data set [1] (read-out: beta-Catenin FP IC50) and in data set [2] (read-out: NanoBRET Abs IC50) were 28 nM and > 20000 nM, respectively. The same compound had a chromatographic logD in “CHI Log D procedure” of 2.51. The “Solubility” value in the data set “Solubility in PBS” is 10 µM (≈ 19.3 µg/mL).

Regarding `CC(=O)N1CCC[C@]12CC=CCCCC1(CCCC=CCCCOC(=O)N3CC[C@@](C(=O)N[C@@H](Cc4ccsc4)C(=O)N[C@@H](Cc4csc5ccccc45)C(N)=O)(C3)NC(=O)[C@H](CC(N)=O)NC(=O)[C@H](Cc3ccccc3)NC(=O)[C@H](C)NC(=O)[C@H](C)NC(=O)[C@H](CC(N)=O)NC(=O)[C@H](CC(=O)O)NC1=O)NC(=O)[C@H](CC(C)(C)C)NC(=O)[C@H](CC(=O)O)NC2=O` (stereo partly drawn) [I-857, Ac-PL3-Asp-Npg-B5-Asp-Asn-Ala-Ala-Phe-Asn-PyrS2-3Thi-BztA-NH2], the figures for the IC50 in data set [1] (read-out: beta-Catenin FP IC50), in data set [2] (read-out: NanoBRET Abs IC50) and in data set [2] (read-out: NanoBRET IC50) were 15 nM, 30600 nM and 50600 nM, respectively. Further, in the data set “CHI Log D procedure”, the chromatographic logD is 2.58. Further, the “Solubility” value in “Solubility in PBS” was 10 µM (≈ 17.9 µg/mL).

Regarding `CC(=O)N1CCC[C@]12CC=CCCCC1(CCCC=CCCCOC(=O)N3CC[C@@](C(=O)N[C@@H](Cc4ccsc4)C(=O)N[C@@H](Cc4csc5ccccc45)C(N)=O)(C3)NC(=O)[C@H](CC(N)=O)NC(=O)[C@H](Cc3ccccc3)NC(=O)[C@H](C)NC(=O)[C@H](C)NC(=O)[C@H](CCC(N)=O)NC(=O)[C@H](CC(=O)O)NC1=O)NC(=O)[C@H](CC(C)(C)C)NC(=O)[C@H](CC(=O)O)NC2=O` (stereo partly drawn) [I-858, Ac-PL3-Asp-Npg-B5-Asp-Gln-Ala-Ala-Phe-Asn-PyrS2-3Thi-BztA-NH2], the IC50 was 34 nM in data set [1] (read-out: beta-Catenin FP IC50) and > 20000 nM in data set [2] (read-out: NanoBRET Abs IC50). In addition, the chromatographic logD in “CHI Log D procedure” was 2.54. Moreover, the Solubility in the data set “Solubility in PBS” (Solubility (uM)) was 18 µM (≈ 32.5 µg/mL).

The record behind these values is patent publication US20240116985A1, “STAPLED PEPTIDES AND METHODS THEREOF” (priority 2020, published 2024).
